Assay results reported in patent US4229584A, “Ureylenebis(anionic substituted phenylene carbonyl)imino naphthalene sulfonic acids and naphthalene carboxylic acids and their salts” (American Cyanamid Company, priority 1978, dated 1980).
Where a name gives a salt, the structure may show the parent alone. Read-outs that look alike come from different tables or passages of the source.

How the values were obtained:
whole complement = assay: In vivo complement inhibition in guinea pigs (whole complement of serum, capillary tube assay); design: species or system guinea pig; conditions: for change in vivo at 200 mg/kg: Cavia porcellus, ip
Text: (§1) An active inhibitor protects C2 from C1 and C4; (ii) Test, Code 035 (C3-C9 inhibitor)--This test determines the ability of the late components of human complement (C3-C9) to lyse EAC 142 in the presence of appropriate dilutions of the test compound. An active inhibitor protects EAC 142 from lysis by human C3-C9; (iii) Test, Code 036 (C-Shunt inhibitor)--In this test human erythrocytes rendered fragile are lysed in autologous serum via the shunt pathway activated by cobra venom factor in the presence of appropriate dilutions of the test compound. Inhibition of the shunt pathway results in failure of lysis; (iv) Forssman Vasculitis Test--Here, the well known complement dependent lesion, Forssman vasculitis, is produced in guinea pigs by intradermal injection of rabbit anti-Forssman antiserum. The lesion is measured in terms of diameter, edema and hemorrhage and the extent to which a combined index of these is inhibited by prior intraperitoneal injection of the test compound at 200 mg/kg is then reported, unless otherwise stated; (v) Forssman Shock Test--Lethal shock is produced in guinea pigs by an i.v. injection of anti-Forssman antiserum and the harmonic mean death time of treated guinea pigs is compared with that of simultaneous controls; (vi) Complement Level Reduction Test--In this test, the above dosed guinea pigs, or others, are bled for serum and the complement level is determined in undiluted serum by the capillary tube method of U.S. Pat. No. 3,876,376 and compared to undosed control guinea pigs; and (vii) Cap 50 Test--Here, appropriate amounts of the test compound are added to a pool of guinea pig serum in vitro, after which the undiluted serum capillary tube assay referred to above is run. The concentration of compound inhibiting 50% is reported.
With reference to Table I, guinea pigs weighing about 300 g were dosed intravenously (i.v.) or intraperitoneally (i.p.) with 200 mg/kg of the test compound dissolved in saline and adjusted to pH 7-8. […] The serum was tested for whole complement using the capillary tube assay. Percent inhibition was calculated by comparison with simultaneous controls. The results appear in Table I together with results of tests, Code 026, 035, 036, Cap 50, percent inhibition and Forssman shock.

shunt pathway = assay: Test, Code 036 (C-Shunt inhibitor): lysis of human erythrocytes in autologous serum via shunt pathway activated by cobra venom factor; assay type: cell-based; conditions: activity in wells, twofold serial dilution; higher well number indicates higher activity
Text: as §1
(§2) **Activity in wells, a serial dilution assay. Higher well number indicate
(§3) higher activity. The serial dilutions are twofold.

[1] = system: late components of human complement (C3-C9); assay: Test, Code 035 (C3-C9 inhibitor): lysis of EAC 142 by late components of human complement; assay type: cell-based; conditions: activity in wells, twofold serial dilution; higher well number indicates higher activity
Text: as §1, §2, §3

human C1 = molecular target: T1, human C1 (Homo sapiens, UniProt P09871); assay: Test, Code 026 (C1 inhibitor): protection of fluid phase human C2 from activated human C1; assay type: biochemical; conditions: activity in wells, twofold serial dilution; higher well number indicates higher activity
T1 construct: substrate fluid phase human C2, in presence of C4
Text: as §1, §2, §3

complement system = conditions: cited from earlier work; for anticomplementary effect: British Journal of Experimental Pathology, 33, 327-339 (1952)
[2] = The New England Journal of Medicine, 286, 808-812 (1972); cited from earlier work
[3] = 0.5 h, read-out: In Vivo Activity (Guinea Pig) % Inhibition Intraperitoneal 30 mins.
[4] = 1 h, read-out: In Vivo Activity (Guinea Pig) % Inhibition Intraperitoneal 60 mins.
[5] = 2 h, read-out: In Vivo Activity (Guinea Pig) % Inhibition Intraperitoneal 120 mins.
[6] = 0.5 h, intraperitoneal, 200 mg/kg, 30 mins., read-out: In Vivo Activity (Guinea Pig) % Inhibition Intraperitoneal 30 mins.
[7] = 1 h, intraperitoneal, 200 mg/kg, 60 mins., read-out: In Vivo Activity (Guinea Pig) % Inhibition Intraperitoneal 60 mins.
[8] = 2 h, intraperitoneal, 200 mg/kg, 120 mins., read-out: In Vivo Activity (Guinea Pig) % Inhibition Intraperitoneal 120 mins.

T1 sequence (P09871 16-688): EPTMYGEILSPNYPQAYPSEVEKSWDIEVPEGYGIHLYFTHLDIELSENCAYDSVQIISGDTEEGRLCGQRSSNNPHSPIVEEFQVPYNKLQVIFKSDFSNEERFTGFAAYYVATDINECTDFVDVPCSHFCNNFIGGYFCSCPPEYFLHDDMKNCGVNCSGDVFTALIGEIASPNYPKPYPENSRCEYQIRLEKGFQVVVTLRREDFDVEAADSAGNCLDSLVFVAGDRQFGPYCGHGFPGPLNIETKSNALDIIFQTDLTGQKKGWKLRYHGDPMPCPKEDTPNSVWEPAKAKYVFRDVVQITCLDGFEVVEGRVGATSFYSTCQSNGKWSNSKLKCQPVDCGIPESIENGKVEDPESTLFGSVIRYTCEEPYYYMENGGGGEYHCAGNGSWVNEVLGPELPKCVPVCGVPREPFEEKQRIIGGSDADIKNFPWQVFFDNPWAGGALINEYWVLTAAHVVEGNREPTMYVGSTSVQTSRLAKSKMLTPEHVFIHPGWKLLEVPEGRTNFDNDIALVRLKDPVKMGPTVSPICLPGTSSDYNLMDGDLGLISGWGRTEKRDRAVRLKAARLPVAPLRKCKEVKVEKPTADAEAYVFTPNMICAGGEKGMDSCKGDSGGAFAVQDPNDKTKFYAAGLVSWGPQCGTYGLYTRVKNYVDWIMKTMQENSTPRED
T1 sequence (P00736 18-705 partner): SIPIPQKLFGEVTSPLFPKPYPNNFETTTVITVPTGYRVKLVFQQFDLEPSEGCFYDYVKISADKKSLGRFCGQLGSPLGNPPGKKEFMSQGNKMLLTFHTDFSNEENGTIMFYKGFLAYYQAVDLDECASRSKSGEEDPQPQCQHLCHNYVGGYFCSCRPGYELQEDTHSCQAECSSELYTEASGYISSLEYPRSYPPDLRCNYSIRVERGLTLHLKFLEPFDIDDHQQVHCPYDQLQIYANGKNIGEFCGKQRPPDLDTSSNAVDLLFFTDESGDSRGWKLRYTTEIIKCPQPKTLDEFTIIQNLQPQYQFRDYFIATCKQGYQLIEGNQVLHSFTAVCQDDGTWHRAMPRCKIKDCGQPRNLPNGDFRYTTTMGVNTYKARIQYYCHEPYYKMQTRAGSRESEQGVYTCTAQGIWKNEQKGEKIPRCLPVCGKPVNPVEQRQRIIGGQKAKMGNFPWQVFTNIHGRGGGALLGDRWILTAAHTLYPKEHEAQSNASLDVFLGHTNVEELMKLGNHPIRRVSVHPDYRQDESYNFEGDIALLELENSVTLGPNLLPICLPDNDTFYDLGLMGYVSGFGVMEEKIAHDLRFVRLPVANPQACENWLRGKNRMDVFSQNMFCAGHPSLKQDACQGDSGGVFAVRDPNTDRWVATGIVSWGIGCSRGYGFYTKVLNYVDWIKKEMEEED
T1 sequence (P02745 23-245 partner): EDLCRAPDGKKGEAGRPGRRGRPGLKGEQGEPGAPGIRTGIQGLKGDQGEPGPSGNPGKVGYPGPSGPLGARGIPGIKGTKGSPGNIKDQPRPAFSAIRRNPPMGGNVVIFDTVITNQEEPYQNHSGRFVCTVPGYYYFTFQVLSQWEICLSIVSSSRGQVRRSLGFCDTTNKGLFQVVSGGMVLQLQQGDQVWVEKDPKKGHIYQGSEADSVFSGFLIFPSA
T1 sequence (P02746 28-253 partner): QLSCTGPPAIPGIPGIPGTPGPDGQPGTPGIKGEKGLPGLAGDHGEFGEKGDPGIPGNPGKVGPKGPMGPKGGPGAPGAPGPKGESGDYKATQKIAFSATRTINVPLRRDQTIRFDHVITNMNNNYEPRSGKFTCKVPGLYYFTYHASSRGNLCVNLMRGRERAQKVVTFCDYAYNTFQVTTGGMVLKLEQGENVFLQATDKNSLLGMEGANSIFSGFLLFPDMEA
T1 sequence (P02747 29-245 partner): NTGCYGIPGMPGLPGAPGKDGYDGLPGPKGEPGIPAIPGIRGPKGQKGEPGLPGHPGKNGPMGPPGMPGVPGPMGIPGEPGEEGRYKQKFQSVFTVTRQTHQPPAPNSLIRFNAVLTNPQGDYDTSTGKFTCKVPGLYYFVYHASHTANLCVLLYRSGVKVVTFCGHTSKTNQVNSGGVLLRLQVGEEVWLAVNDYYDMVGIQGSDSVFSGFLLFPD

**Q.** With `O=C(Nc1ccc(C(=O)Nc2ccc(S(=O)(=O)[O-])c3ccc(S(=O)(=O)[O-])cc23)c(S(=O)(=O)[O-])c1)Nc1ccc(C(=O)Nc2ccc(S(=O)(=O)[O-])c3ccc(S(=O)(=O)[O-])cc23)c(S(=O)(=O)[O-])c1.[Na+].[Na+].[Na+].[Na+].[Na+].[Na+]` [4,4'-{Ureylenebis[(2-sulfo-4,1-phenylenecarbonyl)imino]}-di-1,6-naphthalenedisulfonic acid hexasodium salt] as the compound, how does the change in vivo at 200 mg/kg (whole complement; [3]) read?
**A.** Its change in vivo at 200 mg/kg is -3%.

**Q.** And the change in vivo at 200 mg/kg (whole complement; [4])?
**A.** The change in vivo at 200 mg/kg was -4%.

**Q.** What about the change in vivo at 200 mg/kg (whole complement; [5]) of the same compound?
**A.** The change in vivo at 200 mg/kg was 6%.

**Q.** And the “Shunt Inhibition 036* Wells” value (shunt pathway)?
**A.** Its value is “N”.

**Q.** What about the “C-Late 035* Wells” value [1] of the same compound?
**A.** The value was “N”.

**Q.** And the “C1 026* Wells” value (human C1)?
**A.** The value was “+5 Wells”.

**Q.** What does the source list for `O=C(Nc1ccc(C(=O)Nc2cc(S(=O)(=O)[O-])cc3ccc(S(=O)(=O)[O-])cc23)c(S(=O)(=O)[O-])c1)Nc1ccc(C(=O)Nc2cc(S(=O)(=O)[O-])cc3ccc(S(=O)(=O)[O-])cc23)c(S(=O)(=O)[O-])c1.[Na+].[Na+].[Na+].[Na+].[Na+].[Na+]` [4,4'-{Ureylenebis[(2-sulfo-4,1-phenylenecarbonyl)imino]}-di-2,6-naphthalenedisulfonic acid hexasodium salt]?
**A.** change in vivo at 200 mg/kg (whole complement; [3]): -3%; change in vivo at 200 mg/kg (whole complement; [4]): -4%; change in vivo at 200 mg/kg (whole complement; [5]): -11%; Shunt Inhibition 036* Wells (shunt pathway): N; C-Late 035* Wells [1]: N; C1 026* Wells (human C1): +5 Wells

**Q.** For `O=C(Nc1cc(C(=O)O)cc(C(=O)Nc2cc(S(=O)(=O)O)cc3cc(S(=O)(=O)O)cc(S(=O)(=O)O)c23)c1)Nc1cc(C(=O)O)cc(C(=O)Nc2cc(S(=O)(=O)O)cc3cc(S(=O)(=O)O)cc(S(=O)(=O)O)c23)c1` [5,5'-Ureylenebis[N-(3,6,8-trisulfo-1-naphthyl)]isophthalamic acid octasodium salt], which change in vivo at 200 mg/kg (whole complement; [6]) is on record?
**A.** Its change in vivo at 200 mg/kg is -37%.

**Q.** And the change in vivo at 200 mg/kg (whole complement; [7])?
**A.** Its change in vivo at 200 mg/kg is -42%.

**Q.** And the change in vivo at 200 mg/kg (whole complement; [8])?
**A.** Its change in vivo at 200 mg/kg is -48%.

**Q.** And the “In Vivo Activity (Guinea Pig) % Inhibition Intravenous 2 mins.” value (whole complement; intravenous, 200 mg/kg, 2 mins.)?
**A.** Its value is -92%.

**Q.** What about the “In Vivo Activity (Guinea Pig) % Inhibition Intravenous 30 mins.” value (whole complement; intravenous, 200 mg/kg, 30 mins.) of the same compound?
**A.** The value was -44%.

**Q.** And the “In Vivo Activity (Guinea Pig) % Inhibition Intravenous 120 mins.” value (whole complement; intravenous, 200 mg/kg, 120 mins.)?
**A.** The value was -39%.

**Q.** And the “Shunt Inhibition 036* Wells” value (shunt pathway)?
**A.** The value was “+2 Wells”.

**Q.** What about the “C-Late 035* Wells” value [1] of the same compound?
**A.** Its value is “N”.

**Q.** What about the “C1 026* Wells” value (human C1) of the same compound?
**A.** Its value is “+10 Wells”.

**Q.** Which results are given for `COC(=O)c1cc(NC(=O)Nc2cc(C(=O)Nc3ccc(S(=O)(=O)O)c4cc(S(=O)(=O)O)cc(S(=O)(=O)O)c34)cc(C(=O)OC)c2)cc(C(=O)Nc2ccc(S(=O)(=O)O)c3cc(S(=O)(=O)O)cc(S(=O)(=O)O)c23)c1` [5,5'-Ureylenebis[N-(4,6,8-trisulfo-1-naphthyl)isophthalamic acid]dimethyl ester hexasodium salt]?
**A.** change in vivo at 200 mg/kg (whole complement; [6]): -14%; change in vivo at 200 mg/kg (whole complement; [7]): -17%; change in vivo at 200 mg/kg (whole complement; [8]): -25%; Shunt Inhibition 036* Wells (shunt pathway): +1 Wells; C-Late 035* Wells [1]: +1 Wells; C1 026* Wells (human C1): +4 Wells

**Q.** Which change in vivo at 200 mg/kg (whole complement; [6]) does the source give for `O=C(Nc1cc(C(=O)O)cc(C(=O)Nc2ccc(S(=O)(=O)O)c3cc(S(=O)(=O)O)cc(S(=O)(=O)O)c23)c1)Nc1cc(C(=O)O)cc(C(=O)Nc2ccc(S(=O)(=O)O)c3cc(S(=O)(=O)O)cc(S(=O)(=O)O)c23)c1` [5,5'-Ureylenebis[N-(4,6,8-trisulfo-1-naphthyl)isophthalamic acid]octasodiumsalt] here?
**A.** The change in vivo at 200 mg/kg was -40%.

**Q.** And the change in vivo at 200 mg/kg (whole complement; [7])?
**A.** Its change in vivo at 200 mg/kg is -49%.

**Q.** What about the change in vivo at 200 mg/kg (whole complement; [8]) of the same compound?
**A.** Its change in vivo at 200 mg/kg is -71%.

**Q.** What about the “Shunt Inhibition 036* Wells” value (shunt pathway) of the same compound?
**A.** Its value is “+2 Wells”.

**Q.** And the “C-Late 035* Wells” value [1]?
**A.** Its value is “+1 Wells”.

**Q.** What about the “C1 026* Wells” value (human C1) of the same compound?
**A.** Its value is “+5 Wells”.

**Q.** Which results are given for `CC(=O)Nc1ccc2c(S(=O)(=O)O)cc(S(=O)(=O)O)cc2c1NC(=O)c1ccc(NC(=O)Nc2ccc(C(=O)Nc3c(NC(C)=O)ccc4c(S(=O)(=O)O)cc(S(=O)(=O)O)cc34)c(S(=O)(=O)O)c2)cc1S(=O)(=O)O` [5,5'-[Ureylenebis(2-sulfo-1,4-phenylenecarbonylimino)]bis[6-acetamido-1,3-naphthalenedisulfonic acid]hexasodium salt]?
**A.** change in vivo at 200 mg/kg (whole complement; [6]): -19%; change in vivo at 200 mg/kg (whole complement; [7]): 8%; change in vivo at 200 mg/kg (whole complement; [8]): 4%; Shunt Inhibition 036* Wells (shunt pathway): +1 Wells; C-Late 035* Wells [1]: N; C1 026* Wells (human C1): +8 Wells

**Q.** What does the source list for `O=C(Nc1ccc(C(=O)Nc2cc(S(=O)(=O)O)cc3cccc(S(=O)(=O)O)c23)c(S(=O)(=O)O)c1)Nc1ccc(C(=O)Nc2cc(S(=O)(=O)O)cc3cccc(S(=O)(=O)O)c23)c(S(=O)(=O)O)c1` [8,8'-[Ureylenebis(2-sulfo-4,1-phenylenecarbonyl)imino]di-1,6-naphthalenedisulfonic acid hexasodium salt]?
**A.** change in vivo at 200 mg/kg (whole complement; [6]): -10%; change in vivo at 200 mg/kg (whole complement; [7]): -18%; change in vivo at 200 mg/kg (whole complement; [8]): -31%; Shunt Inhibition 036* Wells (shunt pathway): +1 Wells; C-Late 035* Wells [1]: +1 Wells; C1 026* Wells (human C1): +5 Wells

**Q.** Which “inhibition of the complement system” value (complement system; Clin. Exp. Immunol., 10, 127-138 (1972)) does the source give for `Cc1ccc(C(=O)Nc2ccc(S(=O)(=O)O)c3cc(S(=O)(=O)O)cc(S(=O)(=O)O)c23)cc1NC(=O)c1cccc(NC(=O)Nc2cccc(C(=O)Nc3cc(C(=O)Nc4ccc(S(=O)(=O)O)c5cc(S(=O)(=O)O)cc(S(=O)(=O)O)c45)ccc3C)c2)c1` [Suramin] here?
**A.** The value was “competitive inhibitor of the complement system”.

**Q.** For `Nc1ccc2cc(S(=O)(=O)O)cc(O)c2c1N=Nc1ccc(NC(=O)Nc2ccc(N=Nc3c(N)ccc4cc(S(=O)(=O)O)cc(O)c34)c(S(=O)(=O)O)c2)cc1S(=O)(=O)O` [chlorazol fast pink, 3,3'-ureylenebis-[6-(2-amino-8-hydroxy-6-sulfo-1-naphthylazo)]benzenesulfonic acid, tetrasodium salt], which anticomplementary effect (complement system) is on record?
**A.** The anticomplementary effect was “anticomplementary effect”.

**Q.** Which “treatment of hereditary angioneurotic edema” value [2] does the source give for `NCCCCCC(=O)O` [epsilon-aminocaproic acid] here?
**A.** The value was “used with success”.

**Q.** For `NC[C@H]1CC[C@H](C(=O)O)CC1` [tranexamic acid], which “treatment of hereditary angioneurotic edema” value [2] is on record?
**A.** The value was “used with success”.

**Q.** For heparin, which anticomplementary effect (complement system) is on record?
**A.** The anticomplementary effect was “anticomplementary effect”.
